Results published in ChEMBL document CHEMBL1149774, “Synthesis of N-(5,7-diamino-3-phenyl-quinoxalin-2-yl)-3,4,5-substituted anilines and N-[4[(5,7-diamino-3-phenylquinoxalin-2-yl)amino]benzoyl]-l-glutamic acid diethyl ester: evaluation of in vitro anti-cancer and anti-folate activities” (Eur J Med Chem, 2008).

Tests used:
Type in all cases: functional
TK-10 = experiment: Growth inhibition of human TK10 cells after 48 hrs by SRB staining method; settings: TK-10, 48 h
SK-OV-3 = experiment: Growth inhibition of human SKOV3 cells after 48 hrs by SRB staining method; settings: SK-OV-3, 48 h
OVCAR-4 = experiment: Growth inhibition of human OVCAR4 cells after 48 hrs by SRB staining method; settings: OVCAR-4, 48 h
SF-295 = experiment: Growth inhibition of human SF295 cells after 48 hrs by SRB staining method; settings: SF-295, 48 h
RXF 393 = experiment: Growth inhibition of human RXF393 cells after 48 hrs by SRB staining method; settings: RXF 393, 48 h
HL-60 = experiment: Growth inhibition of human HL60 cells after 48 hrs by SRB staining method; settings: HL-60, 48 h
NCI-H226 = experiment: Growth inhibition of human NCI-H226 cells after 48 hrs by SRB staining method; settings: NCI-H226, 48 h
M14 = experiment: Growth inhibition of human M14 cells after 48 hrs by SRB staining method; settings: M14, 48 h
SK-MEL-28 = experiment: Growth inhibition of human SK-MEL-28 cells after 48 hrs by SRB staining method; settings: SK-MEL-28, 48 h
SW-620 = experiment: Growth inhibition of human SW620 cells after 48 hrs by SRB staining method; settings: SW-620, 48 h
MCF7 = experiment: Growth inhibition of human MCF7 cells after 48 hrs by SRB staining method; settings: MCF7, 48 h
UACC-257 = experiment: Growth inhibition of human UACC257 cells after 48 hrs by SRB staining method; settings: UACC-257, 48 h
COLO 205 = experiment: Growth inhibition of human COLO205 cells after 48 hrs by SRB staining method; settings: COLO 205, 48 h
OVCAR-3 = experiment: Growth inhibition of human OVCAR-3 cells after 48 hrs by SRB staining method; settings: OVCAR-3, 48 h
T47D = experiment: Growth inhibition of human T47D cells after 48 hrs by SRB staining method
OVCAR-5 = experiment: Growth inhibition of human OVCAR5 cells after 48 hrs by SRB staining method; settings: OVCAR-5, 48 h
Malme-3M = experiment: Growth inhibition of human MALME-3M cells after 48 hrs by SRB staining method
EKVX = experiment: Growth inhibition of human EKVX cells after 48 hrs by SRB staining method
HCT-15 = experiment: Growth inhibition of human HCT15 cells after 48 hrs by SRB staining method; settings: HCT-15, 48 h
UO-31 = experiment: Growth inhibition of human UO31 cells after 48 hrs by SRB staining method; settings: UO-31, 48 h
786-0 = experiment: Growth inhibition of human 786-0 cells after 48 hrs by SRB staining method; settings: 786-0, 48 h
U-251 = experiment: Growth inhibition of human U251 cells after 48 hrs by SRB staining method; settings: U-251, 48 h
HCT-116 = experiment: Growth inhibition of human HCT116 cells after 48 hrs by SRB staining method; settings: HCT-116, 48 h
HOP-62 = experiment: Growth inhibition of human HOP62 cells after 48 hrs by SRB staining method; settings: HOP-62, 48 h
SK-MEL-5 = experiment: Growth inhibition of human SK-MEL-5 cells after 48 hrs by SRB staining method; settings: SK-MEL-5, 48 h
CAKI-1 = experiment: Growth inhibition of human CAKI1 cells after 48 hrs by SRB staining method; settings: CAKI-1, 48 h
DU-145 = experiment: Growth inhibition of human DU145 cells after 48 hrs by SRB staining method; settings: DU-145, 48 h
NCI-H460 = experiment: Growth inhibition of human NCI-H460 cells after 48 hrs by SRB staining method; settings: NCI-H460, 48 h
NCI-H522 = experiment: Growth inhibition of human NCI-H522 cells after 48 hrs by SRB staining method; settings: NCI-H522, 48 h
NCI-H322M = experiment: Growth inhibition of human NCI-H322M cells after 48 hrs by SRB staining method
SR = experiment: Growth inhibition of human SR cells after 48 hrs by SRB staining method
A498 = experiment: Growth inhibition of human A498 cells after 48 hrs by SRB staining method; settings: A498, 48 h
MDA-MB-435 = experiment: Growth inhibition of human MDA-MB-435 cells after 48 hrs by SRB staining method; settings: MDA-MB-435, 48 h
[1] = read-out: pLC50 (the source's name) (converted)

SMILES: COc1cc(Nc2nc3cc(N)cc(N)c3nc2-c2ccccc2)cc(OC)c1
- GI50 (TK-10): 13.2 µM
- CC50 (TK-10; [1]): > 100 µM
- TGI (TK-10; read-out: pTGI (converted)): 42.7 µM
- GI50 (SK-OV-3): 6.61 µM
- CC50 (SK-OV-3; [1]): > 100 µM
- TGI (SK-OV-3; read-out: pTGI (converted)): 39.8 µM
- GI50 (OVCAR-4): 17.8 µM
- LC50 (OVCAR-4): > 100 µM
- TGI (OVCAR-4; read-out: pTGI (converted)): > 100 µM
- GI50 (SF-295): 12.6 µM
- LC50 (SF-295): > 100 µM
- TGI (SF-295; read-out: pTGI (converted)): 58.9 µM
- GI50 (RXF 393): 3.16 µM
- CC50 (RXF 393; [1]): 95.5 µM
- TGI (RXF 393; read-out: pTGI (converted)): 18.6 µM
- GI50 (HL-60): 10 µM
- CC50 (HL-60; [1]): > 100 µM
- TGI (HL-60; read-out: pTGI (converted)): > 100 µM
- GI50 (NCI-H226): 2.88 µM
- LC50 (NCI-H226): > 100 µM
- TGI (NCI-H226; read-out: pTGI (converted)): 33.1 µM
- GI50 (M14): 14.1 µM
- LC50 (M14): 85.1 µM
- TGI (M14; read-out: pTGI (converted)): 34.7 µM
- GI50 (SK-MEL-28): 14.8 µM
- CC50 (SK-MEL-28; [1]): > 100 µM
- TGI (SK-MEL-28; read-out: pTGI (converted)): 89.1 µM
- GI50 (SW-620): 26.9 µM
- CC50 (SW-620; [1]): > 100 µM
- TGI (SW-620; read-out: pTGI (converted)): > 100 µM
- GI50 (MCF7): 7.94 µM
- CC50 (MCF7; [1]): 85.1 µM
- TGI (MCF7; read-out: pTGI (converted)): 26.9 µM
- GI50 (UACC-257): 15.8 µM
- LC50 (UACC-257): > 100 µM
- TGI (UACC-257; read-out: pTGI (converted)): 47.9 µM
- GI50 (COLO 205): 14.5 µM
- LC50 (COLO 205): 67.6 µM
- TGI (COLO 205; read-out: pTGI (converted)): 31.6 µM
- GI50 (OVCAR-3): 3.89 µM
- LC50 (OVCAR-3): 100 µM
- TGI (OVCAR-3; read-out: pTGI (converted)): 20 µM
- GI50 (T47D): 4.47 µM
- CC50 (T47D; [1]): > 100 µM
- TGI (T47D; read-out: pTGI (converted)): 22.9 µM
- GI50 (OVCAR-5): 26.3 µM
- LC50 (OVCAR-5): > 100 µM
- TGI (OVCAR-5; read-out: pTGI (converted)): > 100 µM
- GI50 (Malme-3M): 4.37 µM
- LC50 (Malme-3M): > 100 µM
- TGI (Malme-3M; read-out: pTGI (converted)): 24.5 µM
- GI50 (EKVX): 13.2 µM
- CC50 (EKVX; [1]): > 100 µM
- TGI (EKVX; read-out: pTGI (converted)): 64.6 µM
- GI50 (HCT-15): 20 µM
- LC50 (HCT-15): > 100 µM
- TGI (HCT-15; read-out: pTGI (converted)): > 100 µM
- GI50 (UO-31): 8.91 µM
- CC50 (UO-31; [1]): > 100 µM
- TGI (UO-31; read-out: pTGI (converted)): 44.7 µM
- GI50 (786-0): 17.8 µM
- CC50 (786-0; [1]): > 100 µM
- TGI (786-0; read-out: pTGI (converted)): 51.3 µM
- GI50 (U-251): 22.9 µM
- LC50 (50% lethal concentration) (U-251): > 100 µM
- TGI (U-251; read-out: pTGI (converted)): > 100 µM
- GI50 (HCT-116): 17 µM
- LC50 (HCT-116): > 100 µM
- TGI (HCT-116; read-out: pTGI (converted)): 53.7 µM
- GI50 (HOP-62): 19.5 µM
- LC50 (HOP-62): > 100 µM
- TGI (HOP-62; read-out: pTGI (converted)): 53.7 µM
- GI50 (SK-MEL-5): 10.5 µM
- LC50 (SK-MEL-5): 87.1 µM
- TGI (SK-MEL-5; read-out: pTGI (converted)): 30.2 µM
- GI50 (CAKI-1): 14.8 µM
- CC50 (CAKI-1; [1]): > 100 µM
- TGI (CAKI-1; read-out: pTGI (converted)): 72.4 µM
- GI50 (DU-145): 22.9 µM
- CC50 (DU-145; [1]): > 100 µM
- TGI (DU-145; read-out: pTGI (converted)): > 100 µM
- GI50 (NCI-H460): 7.94 µM
- LC50 (concentration killing 50% of cells) (NCI-H460): > 100 µM
- TGI (NCI-H460; read-out: pTGI (converted)): 52.5 µM
- GI50 (NCI-H522): 9.55 µM
- LC50 (NCI-H522): 85.1 µM
- TGI (NCI-H522; read-out: pTGI (converted)): 28.8 µM
- GI50 (NCI-H322M): 13.8 µM
- LC50 (NCI-H322M): > 100 µM
- TGI (NCI-H322M; read-out: pTGI (converted)): 58.9 µM
- GI50 (SR): 5.62 µM
- CC50 (SR; [1]): > 100 µM
- TGI (SR; read-out: pTGI (converted)): > 100 µM
- GI50 (A498): 4.9 µM
- CC50 (A498; [1]): 79.4 µM
- TGI (A498; read-out: pTGI (converted)): 22.4 µM
- GI50 (MDA-MB-435): 11.5 µM
- CC50 (MDA-MB-435; [1]): 49 µM
- TGI (MDA-MB-435; read-out: pTGI (converted)): 24 µM
